Experimental data from the kinase profiling compilation of Christmann-Franck et al. (2016).

Experiments:
Test in all cases: KINOMEscan competition binding
Settings in all cases: compound 1.0 µM
[1] = target: RPS6KA2 KD2 (human) (UniProt Q15349)
[2] = target: STK25 (human) (UniProt O00506)
[3] = target: PTK2B (human) (UniProt Q14289)
[4] = target: TIE1 (human) (UniProt P35590)
[5] = target: AURKC (human) (UniProt Q9UQB9)
[6] = target: CLK4 (human) (UniProt Q9HAZ1)
[7] = target: DCLK1 (human) (UniProt O15075)
Sequence of DCLK1 (human) (O15075 whole entry, looked up): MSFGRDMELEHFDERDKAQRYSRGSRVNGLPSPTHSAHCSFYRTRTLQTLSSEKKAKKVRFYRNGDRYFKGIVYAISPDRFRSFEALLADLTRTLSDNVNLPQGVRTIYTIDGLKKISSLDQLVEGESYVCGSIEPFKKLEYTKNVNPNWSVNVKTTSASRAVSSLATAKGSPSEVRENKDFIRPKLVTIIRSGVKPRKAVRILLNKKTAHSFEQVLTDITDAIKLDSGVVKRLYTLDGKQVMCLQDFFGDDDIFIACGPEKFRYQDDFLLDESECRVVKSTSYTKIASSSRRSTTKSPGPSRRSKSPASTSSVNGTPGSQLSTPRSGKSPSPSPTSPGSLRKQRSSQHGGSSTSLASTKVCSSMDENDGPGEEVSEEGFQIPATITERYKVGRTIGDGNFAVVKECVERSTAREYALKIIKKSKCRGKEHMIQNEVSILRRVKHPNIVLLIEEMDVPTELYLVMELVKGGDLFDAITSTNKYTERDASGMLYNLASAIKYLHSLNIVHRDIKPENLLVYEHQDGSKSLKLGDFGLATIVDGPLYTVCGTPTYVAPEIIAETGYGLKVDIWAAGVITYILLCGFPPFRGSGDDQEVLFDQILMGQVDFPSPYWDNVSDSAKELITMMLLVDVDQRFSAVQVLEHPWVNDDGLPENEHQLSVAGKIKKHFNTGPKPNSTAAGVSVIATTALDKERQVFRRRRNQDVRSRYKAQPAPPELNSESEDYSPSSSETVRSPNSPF

[8] = target: PRKCH (human) (UniProt P24723)
[9] = target: MAP3K9 (human) (UniProt P80192)
[10] = target: ERBB4 (human) (UniProt Q15303)
[11] = target: EPHB2 (human) (UniProt P29323)
[12] = target: RPS6KA6 KD2 (human) (UniProt Q9UK32)
[13] = target: CDK16 (human) (UniProt Q00536)
[14] = target: BRSK2 (human) (UniProt Q8IWQ3)
[15] = target: PRPF4B (human) (UniProt Q13523)
[16] = system: KIT (human), P10721 [D816H]
[17] = target: MAP4K4 (human) (UniProt O95819)
Sequence of MAP4K4 (human) (O95819 whole entry, looked up): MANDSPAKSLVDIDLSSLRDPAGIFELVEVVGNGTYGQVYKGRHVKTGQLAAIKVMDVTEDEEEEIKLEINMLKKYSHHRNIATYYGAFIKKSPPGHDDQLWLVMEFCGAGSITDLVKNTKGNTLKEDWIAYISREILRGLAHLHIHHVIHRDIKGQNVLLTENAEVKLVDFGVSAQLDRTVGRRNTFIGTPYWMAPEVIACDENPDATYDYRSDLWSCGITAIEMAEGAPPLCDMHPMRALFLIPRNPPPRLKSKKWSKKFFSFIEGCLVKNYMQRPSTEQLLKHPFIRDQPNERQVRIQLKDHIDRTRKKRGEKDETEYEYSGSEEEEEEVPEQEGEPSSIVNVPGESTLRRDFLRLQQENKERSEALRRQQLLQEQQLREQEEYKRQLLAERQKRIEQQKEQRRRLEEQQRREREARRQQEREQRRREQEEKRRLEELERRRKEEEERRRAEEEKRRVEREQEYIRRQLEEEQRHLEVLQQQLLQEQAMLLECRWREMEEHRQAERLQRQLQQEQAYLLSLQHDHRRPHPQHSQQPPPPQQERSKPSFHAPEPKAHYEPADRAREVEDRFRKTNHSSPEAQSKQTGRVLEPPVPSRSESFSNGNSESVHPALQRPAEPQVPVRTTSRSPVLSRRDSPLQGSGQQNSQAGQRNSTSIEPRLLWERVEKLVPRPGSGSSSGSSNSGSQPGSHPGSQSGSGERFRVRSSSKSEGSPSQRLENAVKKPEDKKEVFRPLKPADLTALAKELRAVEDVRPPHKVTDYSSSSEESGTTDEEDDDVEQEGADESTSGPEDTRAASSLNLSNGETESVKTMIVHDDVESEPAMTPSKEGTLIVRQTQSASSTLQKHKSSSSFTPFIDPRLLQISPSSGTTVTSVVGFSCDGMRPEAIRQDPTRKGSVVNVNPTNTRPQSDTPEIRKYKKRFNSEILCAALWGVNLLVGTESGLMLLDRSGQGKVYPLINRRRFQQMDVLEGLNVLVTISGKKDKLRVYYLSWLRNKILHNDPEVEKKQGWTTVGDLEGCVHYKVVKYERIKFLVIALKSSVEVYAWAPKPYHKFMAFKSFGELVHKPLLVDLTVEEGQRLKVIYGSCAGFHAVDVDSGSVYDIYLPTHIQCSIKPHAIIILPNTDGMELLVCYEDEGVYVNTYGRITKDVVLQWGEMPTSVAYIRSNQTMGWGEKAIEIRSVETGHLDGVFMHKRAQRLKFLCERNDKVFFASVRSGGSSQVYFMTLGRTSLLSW

[18] = target: WEE1 (human) (UniProt P30291)
[19] = target: PIP4K2B (human) (UniProt P78356)
[20] = target: TNK1 (human) (UniProt Q13470)
[21] = system: RET (human), P07949 [M918T]
[22] = target: WEE2 (human) (UniProt P0C1S8)
[23] = target: MAPKAPK5 (human) (UniProt Q8IW41)
Sequence of MAPKAPK5 (human) (Q8IW41 whole entry, looked up): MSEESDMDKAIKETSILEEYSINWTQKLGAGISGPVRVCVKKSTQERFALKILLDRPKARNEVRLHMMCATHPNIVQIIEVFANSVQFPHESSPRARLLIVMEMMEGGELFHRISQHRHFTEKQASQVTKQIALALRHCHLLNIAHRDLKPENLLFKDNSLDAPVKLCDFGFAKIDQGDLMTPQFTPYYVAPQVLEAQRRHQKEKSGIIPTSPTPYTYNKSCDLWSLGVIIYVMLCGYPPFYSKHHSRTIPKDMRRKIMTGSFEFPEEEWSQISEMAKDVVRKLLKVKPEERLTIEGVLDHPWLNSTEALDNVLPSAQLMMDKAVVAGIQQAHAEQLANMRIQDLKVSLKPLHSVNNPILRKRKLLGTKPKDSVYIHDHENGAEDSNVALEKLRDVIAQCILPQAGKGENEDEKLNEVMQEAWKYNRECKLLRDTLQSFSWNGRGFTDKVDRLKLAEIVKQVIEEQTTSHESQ

[24] = target: PRKACB (human) (UniProt P22694)
[25] = target: STK4 (human) (UniProt Q13043)
[26] = target: MAPK15 (human) (UniProt Q8TD08)
[27] = target: MYO3B (human) (UniProt Q8WXR4)
[28] = target: ADCK3 (human) (UniProt Q8NI60)
[29] = target: SIK3 (human) (UniProt Q9Y2K2)
[30] = target: RPS6KB1 (human) (UniProt P23443)
[31] = target: IRAK4 (human) (UniProt Q9NWZ3)
[32] = target: STK32A (human) (UniProt Q8WU08)
[33] = target: NEK5 (human) (UniProt Q6P3R8)
[34] = target: STK33 (human) (UniProt Q9BYT3)
[35] = target: SRPK2 (human) (UniProt P78362)
[36] = target: STK11 (human) (UniProt Q15831)
Sequence of STK11 (human) (Q15831 whole entry, looked up): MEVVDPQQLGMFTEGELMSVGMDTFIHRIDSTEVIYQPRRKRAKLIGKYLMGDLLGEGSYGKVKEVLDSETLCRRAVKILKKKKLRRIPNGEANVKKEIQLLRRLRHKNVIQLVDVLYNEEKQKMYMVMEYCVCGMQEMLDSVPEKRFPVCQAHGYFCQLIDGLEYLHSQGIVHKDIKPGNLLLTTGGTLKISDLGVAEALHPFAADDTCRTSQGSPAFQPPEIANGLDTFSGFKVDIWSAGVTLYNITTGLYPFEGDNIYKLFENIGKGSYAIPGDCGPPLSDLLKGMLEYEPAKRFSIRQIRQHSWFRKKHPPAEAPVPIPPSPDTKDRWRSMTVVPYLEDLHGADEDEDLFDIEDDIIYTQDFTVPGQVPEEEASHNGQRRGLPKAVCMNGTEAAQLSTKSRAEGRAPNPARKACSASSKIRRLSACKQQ

[37] = system: EGFR (human), P00533 [747-751 del / S ins]
[38] = system: EGFR (human), P00533 [L861Q]
[39] = target: RPS6KA4 KD1 (human) (UniProt O75676)
[40] = system: FLT3 (human), P36888 [ITD]
Sequence of FLT3 (human), P36888 [ITD] (P36888 whole entry, looked up, change not shown): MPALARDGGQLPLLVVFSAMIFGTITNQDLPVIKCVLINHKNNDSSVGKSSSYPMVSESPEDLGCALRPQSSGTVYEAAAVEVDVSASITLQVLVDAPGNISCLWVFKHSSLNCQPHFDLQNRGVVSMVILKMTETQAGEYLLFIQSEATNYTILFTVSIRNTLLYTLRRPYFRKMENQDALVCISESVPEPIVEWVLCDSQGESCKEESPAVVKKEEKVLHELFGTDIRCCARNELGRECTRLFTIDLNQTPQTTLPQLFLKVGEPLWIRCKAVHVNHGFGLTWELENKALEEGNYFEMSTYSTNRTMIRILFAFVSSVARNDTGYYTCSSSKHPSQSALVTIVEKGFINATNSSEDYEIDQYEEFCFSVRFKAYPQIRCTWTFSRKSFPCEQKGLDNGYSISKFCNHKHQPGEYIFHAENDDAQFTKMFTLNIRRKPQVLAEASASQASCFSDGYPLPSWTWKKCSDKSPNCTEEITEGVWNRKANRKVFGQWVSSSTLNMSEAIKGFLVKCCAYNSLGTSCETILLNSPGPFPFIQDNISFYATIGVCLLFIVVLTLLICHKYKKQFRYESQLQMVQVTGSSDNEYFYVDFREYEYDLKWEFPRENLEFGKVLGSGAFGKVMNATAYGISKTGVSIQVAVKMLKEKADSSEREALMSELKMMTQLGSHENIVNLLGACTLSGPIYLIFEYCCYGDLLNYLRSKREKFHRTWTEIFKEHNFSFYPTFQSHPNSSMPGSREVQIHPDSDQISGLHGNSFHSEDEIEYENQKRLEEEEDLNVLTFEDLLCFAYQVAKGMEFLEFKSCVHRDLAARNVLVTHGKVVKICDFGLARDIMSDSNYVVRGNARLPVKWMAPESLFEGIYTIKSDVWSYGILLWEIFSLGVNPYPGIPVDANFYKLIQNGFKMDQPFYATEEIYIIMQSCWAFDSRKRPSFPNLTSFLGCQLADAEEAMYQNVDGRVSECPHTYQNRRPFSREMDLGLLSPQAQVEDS

[41] = target: TAOK2 (human) (UniProt Q9UL54)
[42] = target: FGFR4 (human) (UniProt P22455)
[43] = target: MAPK13 (human) (UniProt O15264)

Sequence of PTK2B (human) (Q14289 whole entry, looked up): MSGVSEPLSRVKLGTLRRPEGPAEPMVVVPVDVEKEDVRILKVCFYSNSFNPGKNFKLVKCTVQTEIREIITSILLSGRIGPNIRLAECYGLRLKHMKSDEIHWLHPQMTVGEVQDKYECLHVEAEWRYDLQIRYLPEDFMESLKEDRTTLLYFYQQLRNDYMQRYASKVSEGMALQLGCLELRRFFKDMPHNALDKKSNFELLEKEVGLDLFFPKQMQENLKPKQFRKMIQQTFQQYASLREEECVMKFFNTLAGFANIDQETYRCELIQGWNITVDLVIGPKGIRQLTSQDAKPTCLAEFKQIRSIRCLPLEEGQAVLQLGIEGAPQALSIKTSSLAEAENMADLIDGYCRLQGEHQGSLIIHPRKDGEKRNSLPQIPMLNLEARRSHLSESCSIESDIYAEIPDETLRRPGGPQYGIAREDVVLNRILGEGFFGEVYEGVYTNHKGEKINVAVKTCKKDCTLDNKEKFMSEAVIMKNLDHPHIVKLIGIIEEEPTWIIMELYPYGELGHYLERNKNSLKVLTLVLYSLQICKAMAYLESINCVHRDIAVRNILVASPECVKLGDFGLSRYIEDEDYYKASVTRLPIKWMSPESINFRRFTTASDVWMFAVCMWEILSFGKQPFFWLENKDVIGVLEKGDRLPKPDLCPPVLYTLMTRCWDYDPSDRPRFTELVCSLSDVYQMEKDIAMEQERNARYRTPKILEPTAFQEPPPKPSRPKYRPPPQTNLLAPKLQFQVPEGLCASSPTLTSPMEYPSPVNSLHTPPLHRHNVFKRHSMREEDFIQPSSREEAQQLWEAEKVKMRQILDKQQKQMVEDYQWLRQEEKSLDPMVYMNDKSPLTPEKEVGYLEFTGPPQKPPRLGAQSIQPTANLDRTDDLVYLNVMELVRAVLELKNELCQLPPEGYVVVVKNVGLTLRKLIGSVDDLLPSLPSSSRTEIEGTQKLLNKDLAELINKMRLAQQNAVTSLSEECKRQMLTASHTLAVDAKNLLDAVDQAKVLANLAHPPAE

COCCNCCCn1c(C(=O)CF)c(-c2ccc(C)cc2)c2c(N)ncnc21
kinase still bound, per cent of control [1]: 95%
kinase still bound, per cent of control [2]: 100%
kinase still bound, per cent of control [3]: 100%
kinase still bound, per cent of control [4]: 100%
kinase still bound, per cent of control [5]: 89%
kinase still bound, per cent of control [6]: 91%
kinase still bound, per cent of control [7]: 100%
kinase still bound, per cent of control [8]: 100%
kinase still bound, per cent of control [9]: 100%
kinase still bound, per cent of control [10]: 100%
kinase still bound, per cent of control [11]: 92%
kinase still bound, per cent of control [12]: 2.4%
kinase still bound, per cent of control [13]: 100%
kinase still bound, per cent of control [14]: 100%
kinase still bound, per cent of control [15]: 100%
kinase still bound, per cent of control [16]: 97%
kinase still bound, per cent of control [17]: 88%
kinase still bound, per cent of control [18]: 94%
kinase still bound, per cent of control [19]: 94%
kinase still bound, per cent of control [20]: 100%
kinase still bound, per cent of control [21]: 100%
kinase still bound, per cent of control [22]: 100%
kinase still bound, per cent of control [23]: 100%
kinase still bound, per cent of control [24]: 96%
kinase still bound, per cent of control [25]: 94%
kinase still bound, per cent of control [26]: 96%
kinase still bound, per cent of control [27]: 79%
kinase still bound, per cent of control [28]: 100%
kinase still bound, per cent of control [29]: 91%
kinase still bound, per cent of control [30]: 100%
kinase still bound, per cent of control [31]: 100%
kinase still bound, per cent of control [32]: 94%
kinase still bound, per cent of control [33]: 100%
kinase still bound, per cent of control [34]: 100%
kinase still bound, per cent of control [35]: 100%
kinase still bound, per cent of control [36]: 98%
kinase still bound, per cent of control [37]: 84%
kinase still bound, per cent of control [38]: 84%
kinase still bound, per cent of control [39]: 100%
kinase still bound, per cent of control [40]: 91%
kinase still bound, per cent of control [41]: 100%
kinase still bound, per cent of control [42]: 100%
kinase still bound, per cent of control [43]: 89%
